According to patent US12577201B2, “Glutamine analogs” (Jacobio Pharmaceuticals Co., Ltd., priority 2020, dated 2026):

Columns and labels:
[1] = Plasma stability, human plasma; conditions: 1 μM, 37° C., 4 hours
Experimental: (§1) For metabolic stability, plasma from dog, monkey, swine and human were used. For stability, prodrugs (1 μM) were spiked in respective solutions and incubated in an orbital shaker at 37° C. 50 μL aliquots of the mixture in duplicate were removed, and the reaction quenched by addition of four times the volume of ice cold acetonitrile spiked with the internal standard (Dexamethasone 100 ng/mL). […] 100 μL of the supernatant was diluted with 100 μL of water and transferred to the 0.6 mL plastic tubes on 96-well plate. Prodrug disappearance was monitored over time using a liquid chromatography and tandem mass spectrometry (LC-MS/MS).
(§2) For LC-MS/MS, prodrugs were analyzed on a ExionLC AD HPLC system coupled to REF Triple Quad 5500+ mass spectrometer with an ESI interface on an Phenomenex Kinetex 5 m C18 100A (2.1*50) mm UPLC column. The autosampler was temperature controlled and was operated at 4° C. The mobile phase used for the chromatographic separation was composed of acetonitrile/water containing 0.10% formic acid and will run at a flow rate of 0.6 mL/min for 3.5 min using gradient elution. The column effluent was monitored using […], equipped with an electrospray probe set in the positive ionization mode. Samples were introduced into the ionization source through a heated nebulized probe (400° C.). Disappearance of prodrugs will be measured from ratio of peak areas of analyte to IS.
(§3) For quantification of compound remaining, disappearance of prodrugs was measured from ratio of peak areas of analyte to IS.

[2] = Stability in liver microsomes, rat; type: in vitro ADME; conditions: 60 minutes, read-out: In vitro Clint
Experimental: (§4) For metabolic stability, microsomes from human, monkey, dog, rat and mouse were used. For stability, prodrugs (1 μM) were spiked in each microsomes matrix and incubated in an orbital shaker at 37° C. Aliquots of 50 μL were taken from the reaction solution at 0, 15, 30, 45 and 60 min. The reaction was stopped by the addition of 4 volumes of cold acetonitrile with IS (100 nM alprazolam, 200 nM labetalol, 200 nM caffeine and 2 μM ketoprofen). Samples were centrifuged at 3, 220 g for 40 minutes. Aliquot of 100 μL of the supernatant was mixed with 100 μL of ultra-pure H2O and then used for LC-MS/MS analysis.
(§5) For LC-MS/MS, prodrugs were analyzed on an API 4000 instrument from AB Inc (Canada) with an ESI interface coupled to Shimadzu LC system on an Waters XSelect HSS T3 C18, 2.5 m, 2.1×30 mm column.
(§6) For data analysis, peak areas were determined from extracted ion chromatograms. The slope value, k, was determined by linear regression of the natural logarithm of the remaining percentage of the parent drug vs. incubation time curve. The in vitro half-life (in vitro t1/2) was determined from the slope value: in vitro t1/2=−(0.693/k)
(§7) Conversion of the in vitro t1/2 (min) into the in vitro intrinsic clearance (in vitro CLint, in μL/min/mg protein) was done using the following equation (mean of duplicate determinations): […]

[3] = Stability in liver microsomes, human; type: in vitro ADME; conditions: 60 minutes, read-out: In vitro Clint
Experimental: as §4, §5, §6, §7

[4] = Stability in liver microsomes, monkey; type: in vitro ADME; conditions: 60 minutes, read-out: In vitro Clint
Experimental: as §4, §5, §6, §7

[5] = Body weight of C57BL/6 mice bearing MC38 tumors (Example 11); type: in vivo, Mus musculus; conditions: C57BL/6, MC38, 2 μmol/kg S.C. QD; for BW Change (%): D6 to D20
Experimental: The treatments were started when the mean tumor size reached 82-129 mm^3 (average tumor size 102 mm^3). Each group contained 6 tumor bearing mice. Group 1 was treated with Vehicle (10% DMSO+90% Saline), S.C., QD. Group 2 was given treatments with compound 2 at 2 μmol/kg, S.C., QD. Group 3 was given treatments with compound 81 at 2 μmol/kg, S.C., QD. Group 4 was given treatments with compound 443 at 2 μmol/kg, S.C., QD. Group 5 was given treatments with compound 459 at 2 μmol/kg, S.C., QD. Group 6 was given treatments with compound 3 at 2 μmol/kg, S.C., QD.
(§8) In vivo efficacy was examined according to absolute tumor growth inhibition (TGI) and the safety was evaluated according to weight change and survival in mice.

[6] = Plasma stability, monkey plasma; conditions: 1 μM, 37° C., 4 hours
Experimental: as §1, §2, §3

[7] = Plasma stability, swine plasma; conditions: 1 μM, 37° C., 4 hours
Experimental: as §1, §2, §3

[8] = Stability in liver microsomes, mouse; type: in vitro ADME; conditions: 60 minutes, read-out: In vitro Clint
Experimental: as §4, §5, §6, §7

[9] = Plasma stability, dog plasma; type: in vitro ADME; conditions: 1 μM, 37° C., 4 hours
Experimental: For metabolic stability, plasma from dog, monkey, swine and human were used. For stability, prodrugs (1 μM) were spiked in respective solutions and incubated in an orbital shaker at 37° C. 50 μL aliquots of the mixture in duplicate were removed, and the reaction quenched by addition of four times the volume of ice cold acetonitrile spiked with the internal standard (Dexamethasone 100 ng/mL). The samples were vortexed for 30 s and centrifuged at 15000 g for 5 min. 100 μL of the supernatant was diluted with 100 μL of water and transferred to the 0.6 mL plastic tubes on 96-well plate. Prodrug disappearance was monitored over time using a liquid chromatography and tandem mass spectrometry (LC-MS/MS).
as §2, §3

[10] = test system: MC38 tumor cells; test: Anti-tumor efficacy in MC38 model in C57BL/6 mouse (Example 11); type: in vivo; conditions: C57BL/6, MC38, 2 μmol/kg S.C. QD; for T/C (%) / TGI (%) / TV (mm^3) (Mean ± SEM) D6 / TV (mm^3) (Mean ± SEM) D10 / TV (mm^3) (Mean ± SEM) D13 / TV (mm^3) (Mean ± SEM) D17 / TV (mm^3) (Mean ± SEM) D20: Example 11; for TV (mm^3) at D21 (Mean ± SEM): Table 13
Experimental: Animal species: Mus musculus; Strain: C57BL/6; Age: 6-8 weeks; Sex: female. The MC38 tumor cells were maintained in vitro in DMEM medium supplemented with 10% FBS at 37° C., 5% CO2. The cells growing in an exponential growth phase were harvested and counted for tumor inoculation. The culture MC38 were harvested, re-suspended in PBS containing 50% Matrigel at a density of 1×10^7 cells/mL. Each mouse was inoculated subcutaneously in the right flank region with 1×10^6 cells in 0.1 mL of PBS containing 50% Matrigel for tumor development.
The treatments were started when the mean tumor size reached 82-129 mm^3 (average tumor size 102 mm^3). Each group contained 6 tumor bearing mice. Group 1 was treated with Vehicle (10% DMSO+90% Saline), S.C., QD.
as §8
Statistical analysis of difference in tumor volume among the groups was performed using one-way ANOVA followed by individual comparisons using Games-Howell post-hoc test (equal variance not assumed). All data was analyzed using SPSS 22.0 software.

[11] = Stability in liver microsomes, dog; type: in vitro ADME; conditions: 60 minutes, read-out: In vitro Clint
Experimental: as §4, §5, §6, §7

SMILES | plasma stability (compound remaining) [1] | microsomal CLint at 1 μM [2] | microsomal CLint at 1 μM [3] | microsomal CLint at 1 μM [4] | BW(g) (Mean ± SEM) Beginning (D6) [5] | BW Change (%) [5] | BW(g) (Mean ± SEM) End (D20) [5] | plasma stability (compound remaining) [6] | plasma stability (compound remaining) [7] | microsomal CLint at 1 μM [8] | plasma stability (compound remaining) [9] | T/C (%) [10] | TGI (%) [10] | TV (mm^3) (Mean ± SEM) D6 [10] | TV (mm^3) (Mean ± SEM) D10 [10] | TV (mm^3) (Mean ± SEM) D13 [10] | TV (mm^3) (Mean ± SEM) D17 [10] | TV (mm^3) (Mean ± SEM) D20 [10] | TV (mm^3) at D21 (Mean ± SEM) [10] | microsomal CLint at 1 μM [11]
CO[C@@H](C)C(=O)N[C@@H](CCC(=O)C=[N+]=[N-])C(=O)SC(C)C [Compound 459, S-isopropyl (S)-6-diazo-2-((S)-2-methoxypropanamido)-5-oxohexanethioate] | substantially intact | 115 µL/min/mg | 18.9 µL/min/mg | 130 µL/min/mg | 19.9 ± 0.3 g | +6.3% | 21.1 ± 0.5 g | substantially intact | substantially intact | 71.7 µL/min/mg | substantially intact | 11.8% | 88.2% | 102 ± 5 mm^3 | 148 ± 22 mm^3 | 183 ± 30 mm^3 | 281 ± 65 mm^3 | 275 ± 59 mm^3 | 275 ± 59 mm^3 | 9.57 µL/min/mg
CO[C@@H](CCSC)C(=O)N[C@@H](CCC(=O)C=[N+]=[N-])C(=O)OC(C)C [Compound 443, isopropyl (S)-6-diazo-2-((S)-2-methoxy-4-(methylthio)butanamido)-5-oxohexanoate] | substantially intact | 239 µL/min/mg | 73.5 µL/min/mg | 180 µL/min/mg | 19.9 ± 0.6 g | +11.9% | 22.3 ± 0.5 g | substantially intact | substantially intact | 408 µL/min/mg | substantially intact | 21.5% | 78.5% | 102 ± 6 mm^3 | 152 ± 25 mm^3 | 267 ± 65 mm^3 | 384 ± 95 mm^3 | 500 ± 119 mm^3 | 500 ± 119 mm^3 | 81.9 µL/min/mg
